In article PMC3496398 (Molecular pharmaceutics, 2010):
Entries after “also recorded” stand apart in the source; their conditions may differ.

Legend:
[1] = test system: influenza virus neuraminidase; conditions: influenza virus neuraminidase inhibitor; cited from earlier work
[2] = rat, in vivo; cited from earlier work
rat jejunum = assay: Rat jejunal single-pass perfusion assay; type: in vivo; conditions: for rat jejunal Peff in the absence of HNAP: drug perfused alone, 0 mM HNAP
Octanol-buffer = conditions: Log PAB versus cLog P of free drug
Caco-2 cell monolayers = assay: Caco-2 cell monolayer transport assay; type: in vitro ADME; conditions: apical pH 6.5 to basolateral pH 7.4, 0 mM HNAP
[3] = in humans; cited from earlier work

With `CCC(CC)O[C@@H]1C=C(C(=O)O)C[C@H](NC(=N)N)[C@H]1NC(C)=O` [active carboxylate of GO] as the compound, how does the IC50 [1] read?
The IC50 was 0.9 nM.

With `CC(=O)N[C@H]1[C@H]([C@H](O)[C@H](O)CO)OC(C(=O)O)=C[C@@H]1N=C(N)N` [ZNV, Zanamivir] as the compound, how does the “percent of oral dose absorbed (%F)” value [2] read?
The value was 4%.

With `CCOC(=O)C1=C[C@@H](OC(CC)CC)[C@H](NC(C)=O)[C@@H](NC(=N)N)C1` [GO, (3R,4R,5S)-ethyl-4-acetamido-5-guanidino-3-(pentan-3-yloxy)cyclohex-1-enecarboxylate] as the compound, how does the “change of rat jejunal Peff on co-perfusion with HNAP” value (rat jejunum; co-perfusion with 12 mM HNAP versus drug alone) read?
Its value is “failed to increase; also recorded: no significant increase”.

What about the “rat jejunal Peff in the absence of HNAP” value (rat jejunum) of the same compound?
Its value is “No effective permeability; also recorded: Essentially zero”.

What about the “increase of log P by ion-pairing with HNAP compared to the free drug” value (Octanol-buffer) of the same compound?
The value was 3.7 units.

What about the “Caco-2 Papp in the absence of HNAP” value (Caco-2 cell monolayers) of the same compound?
Its value is “no detectable transport”.

For `CCOC(=O)C1=C[C@@H](OC(CC)CC)[C@H](NC(C)=O)[C@@H](N)C1` [OSV, oseltamivir], which oral absorption [3] is on record?
Its oral absorption is 60–80%.

Which “rat jejunal Peff at 4 mM HNAP” value (rat jejunum; 4 mM HNAP) does the source give for `CCCCCCCOC(=O)C1=C[C@H](NC(=N)N)[C@@H](NC(C)=O)[C@H]([C@H](O)[C@H](O)CO)O1` [ZHE, 5-Acetamido-2,6-anhydro-4-(guanidino)-3,4,5-trideoxy-D-glycero-D-galcto-non-2-enonic acid heptyl ester] here?
Its value is 21 ×10⁻⁶ cm/s.

And the “rat jejunal Peff at 10 mM HNAP” value (rat jejunum; 10 mM HNAP)?
The value was 40 ×10⁻⁶ cm/s.

And the “rat jejunal Peff in the absence of HNAP” value (rat jejunum)?
Its value is “essentially zero”.

And the “increase of log P by ion-pairing with HNAP compared to the free drug” value (Octanol-buffer)?
The value was 1.2 units.

What about the “Caco-2 Papp in the absence of HNAP” value (Caco-2 cell monolayers) of the same compound?
Its value is “no detectable transport”.
